Assay results taken from article PMC5788402, “Impact of Target Warhead and Linkage Vector on Inducing Protein Degradation: Comparison of Bromodomain and Extra-Terminal (BET) Degraders Derived from Triazolodiazepine (JQ1) and Tetrahydroquinoline (I-BET726) BET Inhibitor Scaffolds” (Journal of Medicinal Chemistry, 2017).

Experiments:
MV4;11 cells = assay: Cell viability assay (CellTiter-Glo), MV4;11; type: cell-based; details: Homo sapiens, antiproliferative, 48 h treatment, error = quality of curve fitting, read-out: pEC50 MV4;11 (converted)
Brd4^BD2 = Brd4^BD2 (Homo sapiens, UniProt O60885); assay: ITC binary titration, Brd4^BD2 into PROTAC; type: binding; details: Brd4^BD2 in syringe, PROTAC in cell
[1] = biological target: VHL-EloC-EloB protein (VCB) (Homo sapiens, UniProt P40337); assay: ITC binary titration, VCB into PROTAC; type: binding; details: VCB in syringe, PROTAC in cell
[2] = biological target: VCB / Brd4^BD2 ternary complex (Homo sapiens, UniProt O60885+P40337); assay: ITC ternary titration, VCB into Brd4^BD2–PROTAC complex; type: binding
[3] = ternary, VCB in syringe, Brd4^BD2–PROTAC in cell

EC50 (MV4;11 cells): 0.123 µM
stoichiometry N (Brd4^BD2): 0.79 ± 0.03
ΔG (Brd4^BD2): –10.3 ± 0.04 kcal·mol^–1
ΔH (Brd4^BD2): –10.6 ± 0.5 kcal·mol^–1
–TΔS (Brd4^BD2): 0.31 ± 0.53 kcal·mol^–1
stoichiometry N [1]: 0.76 ± 0.03
ΔG [1]: –9.75 ± 0.13 kcal·mol^–1
ΔH [1]: –8.79 ± 0.42 kcal·mol^–1
–TΔS [1]: –0.96 ± 0.29 kcal·mol^–1
α ([2]; cooperativity, ratio between binary and ternary Kd, Brd4^BD2): 4.7
cooperativity (α) Brd4–BD2 ([2]; ternary complex formation with VCB and Brd4^BD2, as tabulated in Table 2): 4.7
ΔpKd ± uncertainty ([2]; ternary vs binary, Brd4^BD2): 0.66 ± 0.10
stoichiometry N [2, 3]: 0.76 ± 0.07
ΔG [2, 3]: –10.7 ± 0.05 kcal·mol^–1
ΔH [2, 3]: –10.6 ± 1.3 kcal·mol^–1
–TΔS [2, 3]: –0.07 ± 1.3 kcal·mol^–1
SMILES: Cc1ncsc1-c1ccc(CNC(=O)[C@@H]2C[C@@H](O)CN2C(=O)[C@@H](NC(=O)COCCOCCOCCOCCNC(=O)C[C@@H]2N=C(c3ccc(Cl)cc3)c3c(sc(C)c3C)-n3c(C)nnc32)C(C)(C)C)cc1 [compound 7]
